The values below come from ChEMBL document CHEMBL5223117, “Synthesis and biological evaluation of novel N, N'-diarylurea derivatives as potent antibacterial agents against MRSA” (Bioorg Med Chem Lett, 2022).

Values after ≈ are worked out from the molar mass of the structure shown.

For one assay, the system named is Enterococcus faecium. Put plainly: Antibacterial activity against Vanomycin-resistant Enterococcus faecium 15-6. The assay is classed as functional.
As a reminder, the MIC is the smallest concentration in the dilution series that meets the test's criterion for growth inhibition. A higher MIC goes with a need for much substance. For `O=C(Nc1ccc(Cl)c(F)c1)Nc1ccc(Cl)c(C(F)(F)F)c1`, the MIC came out at 10.9 µM (≈ 4 µg/mL).

Molecule `O=C(Nc1ccc(Cl)c(C(F)(F)F)c1)Nc1cc(Cl)ccc1F` came in with an MIC of 2.72 µM (≈ 0.999 µg/mL). This MIC lies about 4-fold lower than the previous one.

For the molecule `C[C@H]1COc2c(N3CCN(C)CC3)c(F)cc3c(=O)c(C(=O)O)cn1c23` [LEVOFLOXACIN], it took 177 µM (≈ 64 µg/mL) to inhibit growth (MIC).

The subject of a further assay is Staphylococcus aureus. Briefly: Antibacterial activity against methicillin resistant Staphylococcus aureus 18-2. The assay is classed as functional.
Take `O=C(Nc1ccc(Cl)c(F)c1)Nc1ccc(Cl)c(C(F)(F)F)c1`: the MIC came to 2.72 µM (≈ 0.999 µg/mL).

For the molecule `O=C(Nc1ccc(Cl)c(C(F)(F)F)c1)Nc1cc(Cl)ccc1F`, the MIC is 1.36 µM (≈ 0.499 µg/mL).

Regarding `C[C@H]1COc2c(N3CCN(C)CC3)c(F)cc3c(=O)c(C(=O)O)cn1c23` [LEVOFLOXACIN], the lowest concentration to inhibit growth (MIC) was 177 µM (≈ 64 µg/mL). This MIC is about 130-fold higher than that of the molecule before.

The test system of the next assay is Staphylococcus epidermidis. Briefly: Antibacterial activity against methicillin resistant Staphylococcus epidermidis 19-2. Type of assay: functional.
Regarding `O=C(Nc1ccc(Cl)c(F)c1)Nc1ccc(Cl)c(C(F)(F)F)c1`, the lowest concentration to inhibit growth (MIC) was 1.36 µM (≈ 0.499 µg/mL).

Molecule `O=C(Nc1ccc(Cl)c(C(F)(F)F)c1)Nc1cc(Cl)ccc1F` came in with an MIC of 2.72 µM (≈ 0.999 µg/mL). Against the preceding molecule, the MIC is about 2-fold higher.

Regarding `C[C@H]1COc2c(N3CCN(C)CC3)c(F)cc3c(=O)c(C(=O)O)cn1c23` [LEVOFLOXACIN], the MIC worked out at 11.1 µM (≈ 4 µg/mL).

The subject of a further assay is Staphylococcus aureus. Put plainly: Antibacterial activity against methicillin sensitive Staphylococcus aureus 15. The assay is classed as functional.
`O=C(Nc1ccc(Cl)c(F)c1)Nc1ccc(Cl)c(C(F)(F)F)c1`: the MIC amounted to 2.72 µM (≈ 0.999 µg/mL).

As for `O=C(Nc1ccc(Cl)c(C(F)(F)F)c1)Nc1cc(Cl)ccc1F`, the lowest concentration to inhibit growth (MIC) was 1.36 µM (≈ 0.499 µg/mL).

`C[C@H]1COc2c(N3CCN(C)CC3)c(F)cc3c(=O)c(C(=O)O)cn1c23` [LEVOFLOXACIN]: the MIC stood at 0.69 µM (≈ 0.249 µg/mL).

A further assay has as its system Staphylococcus epidermidis. Put plainly: Antibacterial activity against methicillin resistant Staphylococcus epidermidis 19-1. The assay is classed as functional.
Take `O=C(Nc1ccc(Cl)c(F)c1)Nc1ccc(Cl)c(C(F)(F)F)c1`: 1.36 µM (≈ 0.499 µg/mL) was the least that counted as inhibitory (MIC).

`O=C(Nc1ccc(Cl)c(C(F)(F)F)c1)Nc1cc(Cl)ccc1F` came in with an MIC of 2.72 µM (≈ 0.999 µg/mL). This MIC is about 2-fold higher than that of the molecule before.

In turn, `C[C@H]1COc2c(N3CCN(C)CC3)c(F)cc3c(=O)c(C(=O)O)cn1c23` [LEVOFLOXACIN] registered an MIC of 11.1 µM (≈ 4 µg/mL).

The test system of the next assay is Enterococcus faecium. Briefly: Antibacterial activity against Vanomycin-resistant Enterococcus faecium ATCC 51559. Type of assay: functional.
`O=C(Nc1ccc(Cl)c(F)c1)Nc1ccc(Cl)c(C(F)(F)F)c1` registered an MIC of 10.9 µM (≈ 4 µg/mL).

With `O=C(Nc1ccc(Cl)c(C(F)(F)F)c1)Nc1cc(Cl)ccc1F`, the lowest concentration to inhibit growth (MIC) was 2.72 µM (≈ 0.999 µg/mL).

Take `C[C@H]1COc2c(N3CCN(C)CC3)c(F)cc3c(=O)c(C(=O)O)cn1c23` [LEVOFLOXACIN]: the MIC came to 88.5 µM (≈ 32 µg/mL).

A further assay relates to Staphylococcus aureus. Briefly: Antibacterial activity against vancomycin intermediate and methicillin resistant Staphylococcus aureus ATCC 700699. Type of assay: functional.
In turn, `O=C(Nc1ccc(Cl)c(F)c1)Nc1ccc(Cl)c(C(F)(F)F)c1` came in with an MIC of 1.36 µM (≈ 0.499 µg/mL).

Take `O=C(Nc1ccc(Cl)c(C(F)(F)F)c1)Nc1cc(Cl)ccc1F`: it took 1.36 µM (≈ 0.499 µg/mL) to inhibit growth (MIC).

Regarding `C[C@H]1COc2c(N3CCN(C)CC3)c(F)cc3c(=O)c(C(=O)O)cn1c23` [LEVOFLOXACIN], the MIC was 22.1 µM (≈ 8 µg/mL).

Another assay concerns Staphylococcus epidermidis. Briefly: Antibacterial activity against methicillin sensitive Staphylococcus epidermidis 17-13. Type of assay: functional.
Molecule `O=C(Nc1ccc(Cl)c(F)c1)Nc1ccc(Cl)c(C(F)(F)F)c1` registered an MIC of 2.72 µM (≈ 0.999 µg/mL).

The molecule `O=C(Nc1ccc(Cl)c(C(F)(F)F)c1)Nc1cc(Cl)ccc1F` yielded a minimum inhibitory concentration (MIC) of 2.72 µM (≈ 0.999 µg/mL).

For the molecule `C[C@H]1COc2c(N3CCN(C)CC3)c(F)cc3c(=O)c(C(=O)O)cn1c23` [LEVOFLOXACIN], the MIC turned out to be 0.69 µM (≈ 0.249 µg/mL). This MIC is about 3.9-fold lower than that of the molecule before.

The test system of another assay is Staphylococcus aureus. Put plainly: Antibacterial activity against methicillin sensitive Staphylococcus aureus ATCC 29213. Type of assay: functional.
The molecule `O=C(Nc1ccc(Cl)c(F)c1)Nc1ccc(Cl)c(C(F)(F)F)c1` showed an MIC of 2.72 µM (≈ 0.999 µg/mL).

Regarding `O=C(Nc1ccc(Cl)c(C(F)(F)F)c1)Nc1cc(Cl)ccc1F`, it took 2.72 µM (≈ 0.999 µg/mL) to inhibit growth (MIC). In other words, the single-digit micromolar range.

Consider `C[C@H]1COc2c(N3CCN(C)CC3)c(F)cc3c(=O)c(C(=O)O)cn1c23` [LEVOFLOXACIN], for which the MIC is 0.69 µM (≈ 0.249 µg/mL). Compared with the last molecule, the MIC is about 3.9-fold lower.

Another assay concerns Enterococcus faecium. Briefly: Antibacterial activity against Vanomycin-resistant Enterococcus faecium ATCC 700221. Type of assay: functional.
On to `O=C(Nc1ccc(Cl)c(F)c1)Nc1ccc(Cl)c(C(F)(F)F)c1`, for which it took 5.45 µM (≈ 2 µg/mL) to inhibit growth (MIC). That is a single-digit micromolar value.

For `O=C(Nc1ccc(Cl)c(C(F)(F)F)c1)Nc1cc(Cl)ccc1F`, the lowest concentration to inhibit growth (MIC) was 2.72 µM (≈ 0.999 µg/mL). Against the preceding molecule, the MIC is about 2-fold lower.

Molecule `C[C@H]1COc2c(N3CCN(C)CC3)c(F)cc3c(=O)c(C(=O)O)cn1c23` [LEVOFLOXACIN] came in with an MIC of 177 µM (≈ 64 µg/mL).

Another assay has as its system Staphylococcus aureus. Briefly: Antibacterial activity against methicillin resistant Staphylococcus aureus 20-11. Type of assay: functional.
Consider `O=C(Nc1ccc(Cl)c(F)c1)Nc1ccc(Cl)c(C(F)(F)F)c1`, for which the lowest concentration to inhibit growth (MIC) was 2.72 µM (≈ 0.999 µg/mL).

Molecule `O=C(Nc1ccc(Cl)c(C(F)(F)F)c1)Nc1cc(Cl)ccc1F` gave an MIC of 2.72 µM (≈ 0.999 µg/mL).

Molecule `C[C@H]1COc2c(N3CCN(C)CC3)c(F)cc3c(=O)c(C(=O)O)cn1c23` [LEVOFLOXACIN] came in with an MIC of 1.38 µM (≈ 0.499 µg/mL).

For another assay, the system named is Enterococcus faecalis. Put plainly: Antibacterial activity against Vanomycin-resistant Enterococcus faecalis ATCC 51575. Type of assay: functional.
The molecule `O=C(Nc1ccc(Cl)c(F)c1)Nc1ccc(Cl)c(C(F)(F)F)c1` yielded an MIC of 10.9 µM (≈ 4 µg/mL). This counts as double-digit micromolar.

Regarding `O=C(Nc1ccc(Cl)c(C(F)(F)F)c1)Nc1cc(Cl)ccc1F`, the MIC is 5.45 µM (≈ 2 µg/mL). Against the preceding molecule, the MIC is about 2-fold lower.

With `C[C@H]1COc2c(N3CCN(C)CC3)c(F)cc3c(=O)c(C(=O)O)cn1c23` [LEVOFLOXACIN], it took 2.77 µM (≈ 1 µg/mL) to inhibit growth (MIC).

The next assay has as its system Staphylococcus epidermidis. Briefly: Antibacterial activity against methicillin sensitive Staphylococcus epidermidis ATCC 12228. Type of assay: functional.
Turning to `O=C(Nc1ccc(Cl)c(F)c1)Nc1ccc(Cl)c(C(F)(F)F)c1`, inhibition of growth (MIC) required 2.72 µM (≈ 0.999 µg/mL).

`O=C(Nc1ccc(Cl)c(C(F)(F)F)c1)Nc1cc(Cl)ccc1F`: the MIC was found to be 2.72 µM (≈ 0.999 µg/mL).

As for `C[C@H]1COc2c(N3CCN(C)CC3)c(F)cc3c(=O)c(C(=O)O)cn1c23` [LEVOFLOXACIN], the MIC turned out to be 0.69 µM (≈ 0.249 µg/mL).

The test system of the next assay is Enterococcus faecalis. Briefly: Antibacterial activity against Vanomycin-resistant Enterococcus faecalis ATCC 51299. The assay is classed as functional.
Regarding `O=C(Nc1ccc(Cl)c(F)c1)Nc1ccc(Cl)c(C(F)(F)F)c1`, the MIC came out at 21.8 µM (≈ 8 µg/mL). This lies in the double-digit micromolar range.

As for `O=C(Nc1ccc(Cl)c(C(F)(F)F)c1)Nc1cc(Cl)ccc1F`, the MIC worked out at 5.45 µM (≈ 2 µg/mL).

For `C[C@H]1COc2c(N3CCN(C)CC3)c(F)cc3c(=O)c(C(=O)O)cn1c23` [LEVOFLOXACIN], the MIC amounted to 1.38 µM (≈ 0.499 µg/mL).

The next assay has as its system Staphylococcus aureus. Put plainly: Antibacterial activity against methicillin sensitive Staphylococcus aureus ATCC 33591. The assay is classed as functional.
In turn, `O=C(Nc1ccc(Cl)c(F)c1)Nc1ccc(Cl)c(C(F)(F)F)c1` showed an MIC of 1.36 µM (≈ 0.499 µg/mL).

`O=C(Nc1ccc(Cl)c(C(F)(F)F)c1)Nc1cc(Cl)ccc1F` showed a minimal inhibitory concentration (MIC) of 2.72 µM (≈ 0.999 µg/mL).

The molecule `C[C@H]1COc2c(N3CCN(C)CC3)c(F)cc3c(=O)c(C(=O)O)cn1c23` [LEVOFLOXACIN] returned an MIC of 0.69 µM (≈ 0.249 µg/mL).

A further assay deals with Staphylococcus aureus. Briefly: Antibacterial activity against vancomycin intermediate and methicillin resistant Staphylococcus aureus ATCC 700698. The assay is classed as functional.
Regarding `O=C(Nc1ccc(Cl)c(F)c1)Nc1ccc(Cl)c(C(F)(F)F)c1`, the lowest concentration to inhibit growth (MIC) was 2.72 µM (≈ 0.999 µg/mL).

Turning to `O=C(Nc1ccc(Cl)c(C(F)(F)F)c1)Nc1cc(Cl)ccc1F`, the MIC stood at 1.36 µM (≈ 0.499 µg/mL).

For `C[C@H]1COc2c(N3CCN(C)CC3)c(F)cc3c(=O)c(C(=O)O)cn1c23` [LEVOFLOXACIN], the MIC worked out at 22.1 µM (≈ 8 µg/mL).

The subject of another assay is Staphylococcus aureus. Briefly: Antibacterial activity against methicillin sensitive Staphylococcus aureus 20-12. Type of assay: functional.
The molecule `O=C(Nc1ccc(Cl)c(F)c1)Nc1ccc(Cl)c(C(F)(F)F)c1` registered an MIC of 2.72 µM (≈ 0.999 µg/mL).

The molecule `O=C(Nc1ccc(Cl)c(C(F)(F)F)c1)Nc1cc(Cl)ccc1F` showed an MIC of 2.72 µM (≈ 0.999 µg/mL).

Take `C[C@H]1COc2c(N3CCN(C)CC3)c(F)cc3c(=O)c(C(=O)O)cn1c23` [LEVOFLOXACIN]: the MIC stood at 1.38 µM (≈ 0.499 µg/mL).

A further assay has as its system Staphylococcus aureus. Put plainly: Antibacterial activity against methicillin resistant Staphylococcus aureus ATCC 43300. Type of assay: functional.
Molecule `O=C(Nc1ccc(Cl)c(F)c1)Nc1ccc(Cl)c(C(F)(F)F)c1` gave an MIC of 2.72 µM (≈ 0.999 µg/mL).

`O=C(Nc1ccc(Cl)c(C(F)(F)F)c1)Nc1cc(Cl)ccc1F`: 2.72 µM (≈ 0.999 µg/mL) was the least that counted as inhibitory (MIC).

With `C[C@H]1COc2c(N3CCN(C)CC3)c(F)cc3c(=O)c(C(=O)O)cn1c23` [LEVOFLOXACIN], the lowest concentration to inhibit growth (MIC) was 1.38 µM (≈ 0.499 µg/mL).
